Results taken from patent publication US20150284342A1, “BIS(FLUOROALKYL)-1,4-BENZODIAZEPINONE COMPOUNDS” (BRISTOL-MYERS SQUIBB COMPANY, priority 2011, published 2015).
pIC50: −log10 of the molar value. Like-named read-outs stand apart in the source and are kept apart here.

Columns and labels:
[1] = High Throughput (HT) Metabolic Stability Panel, human liver microsomes
Protocol: (§1) Each compound was tested in duplicate.

[2] = High Throughput (HT) Metabolic Stability Panel, mouse liver microsomes
Protocol: as §1

[3] = tested on: human tumor xenografts; test: Human Tumor Xenograft Models in Mice (various tumors); assay type: in vivo; details: for antitumor activity: oral administration (PO); for Antitumor Activity (% TGI): PO, QD × 15, 10 day-on-2 day-off, 5-10 mg/kg/adm
[4] = tested on: human breast carcinoma cell line MDA-MB-157; test: Human tumor xenograft model in mice: MDA-MB-157; assay type: in vivo; details: for Antitumor Activity MDA-MB-157 (% TGI): oral, QD × 15, 10 Day-on-2 Day-off
[5] = tested on: Notch 3; test: Notch-CBF1 Transactivation Assay (Notch 3); assay type: cell-based
Text: (§2) Table 12 denotes respective DNA quantity for the transfections.
(§3) Duplicates were used for each sample.

[6] = tested on: TALL1 Human T-cell acute lymphoblastic leukemia; test: Human tumor xenograft model in mice: TALL1; assay type: in vivo; details: for Antitumor Activity TALL1 (LCK): oral, QD × 15, 10 Day-on-2 Day-off
[7] = tested on: Notch 1; test: Notch-CBF1 Transactivation Assay (Notch 1); assay type: cell-based
Text: as §2, §3

[8] = tested on: MDA-MB-468 Human Breast Carcinoma; test: Human tumor xenograft model in mice: MDA-MB-468 (combination with paclitaxel); assay type: in vivo; details: for Antitumor Activity MDA-MB-468 (% TGI): oral, QD × 15, 10 Day-on-2 Day-off; for Tumor Growth Delay / Tumor Growth Delay (LCK): target tumor size 500 mg
[9] = tested on: ALL-SIL T-cell lymphoblastic leukemia; test: Human tumor xenograft model in mice: ALL-SIL (combination with dasatinib); assay type: in vivo; details: for Tumor Growth Delay / Tumor Growth Delay (LCK): target tumor size 1000 mg
[10] = tested on: ER receptor positive human breast carcinoma xenograft MCF7; test: Human tumor xenograft model in mice: MCF7 (combination with Tamoxifen); assay type: in vivo; details: for Tumor Growth Inhibition TGI: target tumor size 500 mg
[11] = tested on: human ovarian teratocarcinoma xenograft PA-1; test: Human tumor xenograft model in mice: PA-1 (combination with carboplatin); assay type: in vivo
[12] = tested on: human T-ALL leukemia xenografts HPB-ALL; test: Human tumor xenograft model in mice: HPB-ALL (combination with dexamethasone); assay type: in vivo; details: for Tumor Growth Delay / Tumor Growth Delay (LCK): target tumor size 3000 mg
[13] = 0.5 μM compound, human liver microsomes, 10 min incubation
[14] = 0.5 μM compound, mouse liver microsomes, 10 min incubation
[15] = read-out: Notch 3 (IC50), HeLa cells, luciferase, rounded to 2 digits
[16] = read-out: Notch 1 (IC50), HeLa cells, luciferase, rounded to 2 digits
[17] = Example 1 3.75 mg/kg PO, QD x 3, weekly x 7
[18] = Example 1 […] PO, QD x 3, weekly x 7
[19] = Example 1 3.75 mg/kg PO, QD ×3, weekly ×3
[20] = Example 1 1 mg/kg PO, QD x 21, target tumor size 500 mg
[21] = Example 1 3.75 mg/kg PO, QD x 3, weekly x 3
[22] = Example 1 […] PO, QD x 3, weekly x 3
[23] = Dexamethasone 3.75 mg/kg IP, QD x 14
[24] = Tamoxifen 20 mg/kg IP, Q2D × 10
[25] = Paclitaxel 12 mg/kg IV, Q7D x 6

NC(=O)[C@@H](CCC(F)(F)F)[C@@H](CCC(F)(F)F)C(=O)N[C@H]1N=C(c2ccccc2)c2ccccc2NC1=O [Example 2, (2R,3S)—N-((3S)-2-Oxo-5-phenyl-2,3-dihydro-1H-1,4-benzodiazepin-3-yl)-2,3-bis(3,3,3-trifluoropropyl)succinamide]
0.5 μM HLM (% Remaining) [1, 13]: 88%
0.5 μM MsLM (% Remaining) [2, 14]: 86%
antitumor activity [3]: showed antitumor activity
Antitumor Activity MDA-MB-157 (% TGI) ([4]; 24 mg/kg): 85 % TGI
pIC50 [5, 15]: 8.48
Antitumor Activity TALL1 (LCK) ([6]; 24 mg/kg): 2.4 LCK
pIC50 [7, 16]: 8.77
Antitumor Activity MDA-MB-468 (% TGI) ([8]; single agent, 24 mg/kg): 87 % TGI

CN1C(=O)[C@@H](NC(=O)[C@H](CCC(F)(F)F)[C@H](CCC(F)(F)F)C(N)=O)N=C(c2ccccc2)c2ccccc21 [Example 1, (2R,3S)—N-((3S)-1-Methyl-2-oxo-5-phenyl-2,3-dihydro-1H-1,4-benzodiazepin-3-yl)-2,3-bis(3,3,3-trifluoropropyl)succinamide]
0.5 μM HLM (% Remaining) ([1]; human, microsomes, 10 min, 0.5 µM, pH 7.4): 97%
0.5 μM MsLM (% Remaining) ([2]; mouse, microsomes, 10 min, 0.5 µM, pH 7.4): 91%
CR (%) [9, 17]: 0%
PR (%) [9, 17]: 0%
Tumor Growth Delay [9, 17]: 8.7 days
Tumor Growth Delay (LCK) [9, 17]: 0.5 LCK
Tumor Growth Delay [9, 18]: 1.9 days
Tumor Growth Delay (LCK) [9, 18]: 0.1 LCK
complete response (CR) ([9]; single agent): none of the single agent produced CR
CR (%) [10, 19]: 0%
PR (%) [10, 19]: 0%
Tumor Growth Inhibition TGI [10, 19]: 43%
Tumor Growth Inhibition TGI ([10]; Example 1 […] PO, QD ×3, weekly ×3): 58%
Antitumor Activity (% TGI) ([10]; MCF7, estrogen-dependent breast cancer, single agent, PO, QD × 15, 10 day-on-2 day-off, 5-10 mg/kg/adm): 73 % TGI
CR or PR ([10]; single agent): no CR or PR
Antitumor Activity (% TGI) ([3]; BT-474, HER2+ breast cancer): 96 % TGI
Antitumor Activity (% TGI) ([3]; Calu-6, Non small cell lung cancer): 81 % TGI
Antitumor Activity (% TGI) ([3]; G292, osteogenic sarcoma): 75 % TGI
Antitumor Activity (% TGI) ([3]; HCT116, colon cancer): 75 % TGI
Antitumor Activity (% TGI) ([3]; MCF7i, estrogen-independent breast cancer): 63 % TGI
Antitumor Activity (% TGI) ([3]; Pat-21/Abx R, TN breast cancer (abx R)): 73 % TGI
Antitumor Activity (% TGI) ([3]; Pat-24, pancreatic cancer): 111 % TGI
Antitumor Activity (% TGI) ([3]; Pat-26, pancreatic cancer): 93 % TGI
Antitumor Activity (% TGI) ([3]; Pat-34, ovarian cancer): 89 % TGI
Antitumor Activity (% TGI) ([3]; Pat-50, ovarian cancer): 91 % TGI
Antitumor Activity (% TGI) ([3]; SK-N-AS, neuroblastoma): 67 % TGI
Antitumor Activity (% TGI) ([3]; U-87, glioblastoma multiforme (GBM)): 82 % TGI
antitumor activity [3]: showed antitumor activity
human cancer xenografts in which significant antitumor activity was demonstrated ([3]; xenografts grown in mice): 16
CR (%) ([11]; Example 1 1 mg/kg PO, QD x 21): 0%
Cure (%) ([11]; Example 1 1 mg/kg PO, QD x 21): 0%
PR (%) ([11]; Example 1 1 mg/kg PO, QD x 21): 0%
Tumor Growth Delay [11, 20]: 4 days
Tumor Growth Delay (LCK) [11, 20]: 0.2 LCK
antitumor effect (LCK) ([11]; Example 1 as a single agent, 1 mg/kg/adm): 0.2 LCK
Antitumor Activity MDA-MB-157 (% TGI) ([4]; 7.5-10 mg/kg): 89 % TGI
Antitumor Activity (% TGI) ([4]; MDA-MB157, TN breast cancer, PO, QD × 15, 10 day-on-2 day-off, 5-10 mg/kg/adm): 81 % TGI
pIC50 ([5]; HeLa cells, luciferase, rounded to 2 digits, read-out: Notch 3 (IC50)): 8.47
Antitumor Activity TALL1 (LCK) ([6]; 7.5-10 mg/kg): >4.7 LCK
Antitumor Activity (% TGI) ([6]; TALL1, T-Cell acute lymphoblastic leukemia, PO, QD × 15, 10 day-on-2 day-off, 5-10 mg/kg/adm): 112 % TGI
antitumor activity ([6]; intravenous route (IV), FIG. 6: TALL1, 5 mg/kg/adm, QD×3, IV): exhibited antitumor activity
CR (%) [12, 21]: 0%
PR (%) [12, 21]: 0%
Tumor Growth Delay [12, 21]: 7.8 days
Tumor Growth Delay (LCK) [12, 21]: 0.9 LCK
Tumor Growth Delay [12, 22]: 9.5 days
Tumor Growth Delay (LCK) [12, 22]: 1.1 LCK
antitumor efficacy (LCK) ([12]; Example 1 as a single agent at 7.5 mpk): 1.1 LCK
pIC50 ([7]; HeLa cells, luciferase, rounded to 2 digits, read-out: Notch 1 (IC50)): 8.80
CR (%) [8, 17]: 0%
PR (%) [8, 17]: 0%
Tumor Growth Delay [8, 17]: 7.8 days
Tumor Growth Delay (LCK) [8, 17]: 0.5 LCK
Tumor Growth Delay [8, 18]: 21.2 days
Tumor Growth Delay (LCK) [8, 18]: 1.4 LCK
Antitumor Activity (% TGI) ([8]; MDA-MB468, TN breast cancer, single agent, PO, QD × 15, 10 day-on-2 day-off, 5-10 mg/kg/adm): 91 % TGI
Antitumor Activity MDA-MB-468 (% TGI) ([8]; single agent, 7.5-10 mg/kg): 78 % TGI

C[C@@H]1C[C@H]2[C@@H]3CCC4=CC(=O)C=C[C@]4(C)[C@@]3(F)[C@@H](O)C[C@]2(C)[C@@]1(O)C(=O)CO [Dexamethasone, dexamethasone, reference compound]
CR (%) [12, 23]: 0%
PR (%) [12, 23]: 0%
Tumor Growth Delay [12, 23]: 5.6 days
Tumor Growth Delay (LCK) [12, 23]: 0.6 LCK
Tumor Growth Delay ([12]; Dexamethasone […] IP, QD x 14): 5.8 days
Tumor Growth Delay (LCK) ([12]; Dexamethasone […] IP, QD x 14): 0.7 LCK
antitumor efficacy (LCK) ([12]; dexamethasone as a single agent at its MTD of 7.5 mpk): 0.7 LCK

CC/C(=C(\c1ccccc1)c1ccc(OCCN(C)C)cc1)c1ccccc1 [Tamoxifen, reference compound]
CR (%) [10, 24]: 0%
PR (%) [10, 24]: 0%
Tumor Growth Inhibition TGI [10, 24]: 78%
% TGI ([10]; Tamoxifen at MTD dose of 20 mg/kg/adm, IP, Q2 DX12): 78%
CR or PR ([10]; single agent): no CR or PR

CC(=O)O[C@H]1C(=O)[C@@]2(C)[C@H]([C@H](OC(=O)c3ccccc3)[C@]3(O)C[C@H](OC(=O)[C@H](O)[C@@H](NC(=O)c4ccccc4)c4ccccc4)C(C)=C1C3(C)C)[C@]1(OC(C)=O)CO[C@@H]1C[C@@H]2O [Paclitaxel, paclitaxel, reference compound]
CR (%) [8, 25]: 0%
PR (%) [8, 25]: 0%
Tumor Growth Delay [8, 25]: 7.8 days
Tumor Growth Delay (LCK) [8, 25]: 0.5 LCK
antitumor effect (LCK) ([8]; paclitaxel weekly, 12 mg/kg/adm): 0.5 LCK

N.N.O=C([O-])C1(C(=O)[O-])CCC1.[Pt+2] [Carboplatin, carboplatin, reference compound]
antitumor effect (LCK) ([11]; carboplatin weekly, 90 mg/kg/adm): 2.1 LCK

CN1C(=O)[C@@H](NC(=O)[C@H](CCC(F)(F)F)[C@H](CCC(F)(F)F)C(N)=O)N=C(c2ccccc2)c2ccc(Cl)cc21 [Example 11, (2R,3S)—N-((3S)-8-chloro-1-methyl-2-oxo-5-phenyl-2,3-dihydro-1H-1,4-benzodiazepin-3-yl)-2,3-bis(3,3,3-trifluoropropyl)succinamide]
0.5 μM HLM (% Remaining) [1, 13]: 97%
0.5 μM MsLM (% Remaining) [2, 14]: 98%
pIC50 [5, 15]: 8.70
pIC50 [7, 16]: 8.89

Cc1nc(Nc2ncc(C(=O)Nc3c(C)cccc3Cl)s2)cc(N2CCN(CCO)CC2)n1 [Dasatinib, dasatinib, reference compound]
CR (%) ([9]; Dasatinib 10 mg/kg PO, QD x 49): 0%
PR (%) ([9]; Dasatinib 10 mg/kg PO, QD x 49): 0%
Tumor Growth Delay ([9]; Dasatinib 10 mg/kg PO, QD x 49): 30.2 days
Tumor Growth Delay (LCK) ([9]; Dasatinib 10 mg/kg PO, QD x 49): 1.7 LCK
antitumor effect (LCK) ([9]; dasatinib alone, 10 mg/kg/adm, QD×49, PO): 1.7 LCK
